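Assay format: 96-well plates, 48-hour exposure. GI50: concentration for 50% inhibition of growth.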 Active and inactive are the calls of the source. No stated cut-off is given here; in the data, active = GI50 up to about 1.1 µM and inactive = higher.
Key:
Experiment in all cases: inhibition of tumour cell growth, NCI panel, 48 h
IGROV-1 = system: IGROV-1
M14 = system: M14
DU-145 = system: DU-145
SK-MEL-2 = system: SK-MEL-2
SF-295 = system: SF-295
K562 = system: K562
BT-549 = system: BT-549
NCI-H522 = system: NCI-H522
OVCAR-8 = system: OVCAR-8
RPMI-8226 = system: RPMI-8226
NCI-H23 = system: NCI-H23
UACC-257 = system: UACC-257
SNB-19 = system: SNB-19
NCI/ADR-RES = system: NCI/ADR-RES
OVCAR-5 = system: OVCAR-5
SF-268 = system: SF-268
HOP-92 = system: HOP-92
Hs-578T = system: Hs-578T
SK-OV-3 = system: SK-OV-3

SMILES	GI50 (IGROV-1)	GI50 (M14)	GI50 (DU-145)	GI50 (SK-MEL-2)	GI50 (SF-295)	GI50 (K562)	GI50 (BT-549)	GI50 (NCI-H522)	GI50 (OVCAR-8)	GI50 (RPMI-8226)	GI50 (NCI-H23)	GI50 (UACC-257)	GI50 (SNB-19)	GI50 (NCI/ADR-RES)	GI50 (OVCAR-5)	GI50 (SF-268)	GI50 (HOP-92)	GI50 (Hs-578T)	GI50 (SK-OV-3)
Nc1onc2c1Cc1c(noc1N)-c1ccccc1-2	54.5 µM (inactive)	84.3 µM (inactive)	> 100 µM (inactive)	61.2 µM (inactive)	65.2 µM (inactive)	41.3 µM (inactive)	17.5 µM (inactive)	27.4 µM (inactive)	59.6 µM (inactive)	53.7 µM (inactive)	53.6 µM (inactive)	74.3 µM (inactive)	> 100 µM (inactive)	> 100 µM (inactive)	> 100 µM (inactive)	54 µM (inactive)	37.2 µM (inactive)	26.9 µM (inactive)	45.1 µM (inactive)
c1ccc(CN[C@]23C4C5CC6C7C5C2C7[C@@](NCc2ccccc2)(C64)N3Cc2ccccc2)cc1 (stereo partly specified)	> 100 µM (inactive)	> 100 µM (inactive)	> 100 µM (inactive)	> 100 µM (inactive)	> 100 µM (inactive)	> 100 µM (inactive)	> 100 µM (inactive)	91.8 µM (inactive)	> 100 µM (inactive)	> 100 µM (inactive)	> 100 µM (inactive)	> 100 µM (inactive)	> 100 µM (inactive)	> 100 µM (inactive)	> 100 µM (inactive)	> 100 µM (inactive)	> 100 µM (inactive)	> 100 µM (inactive)	> 100 µM (inactive)
O=C1c2ccccc2/C(=N\c2ccc3ccccc3c2)C1(C1=C(c2ccccc2)/C(=N/c2ccc3ccccc3c2)c2ccccc21)c1ccccc1 (stereo unspecified)	6.34 µM (inactive)	4.02 µM (inactive)	5.57 µM (inactive)	11.9 µM (inactive)	10.9 µM (inactive)	4.22 µM (inactive)	5.62 µM (inactive)	5.4 µM (inactive)	6.89 µM (inactive)	3.64 µM (inactive)	4.09 µM (inactive)	5.73 µM (inactive)	73.3 µM (inactive)	6.01 µM (inactive)	> 57.8 µM (inactive)	4.16 µM (inactive)	> 100 µM (inactive)	23.2 µM (inactive)	22.1 µM (inactive)
O=C(O)COc1cc(-c2ccccc2)nc2cc(F)ccc12	> 100 µM (inactive)	> 100 µM (inactive)	> 100 µM (inactive)	> 100 µM (inactive)	> 100 µM (inactive)	> 100 µM (inactive)	> 100 µM (inactive)	> 100 µM (inactive)	> 100 µM (inactive)	> 100 µM (inactive)	> 100 µM (inactive)	> 100 µM (inactive)	> 100 µM (inactive)	> 100 µM (inactive)	> 100 µM (inactive)	> 100 µM (inactive)	> 100 µM (inactive)	> 100 µM (inactive)	> 100 µM (inactive)
COc1ccc2c(c1)-c1c(c3cc(OC)ccc3n1CCCN(C)C)CC2	2.93 µM (inactive)	2.03 µM (inactive)	16.2 µM (inactive)	15.8 µM (inactive)	2.62 µM (inactive)	4.3 µM (inactive)	15.5 µM (inactive)	9.91 µM (inactive)	13.7 µM (inactive)	5.24 µM (inactive)	16.8 µM (inactive)	3.48 µM (inactive)	14.6 µM (inactive)	12.7 µM (inactive)	13.8 µM (inactive)	10.7 µM (inactive)	12.2 µM (inactive)	4.29 µM (inactive)	16.2 µM (inactive)
CCOC(=O)C(NC(=O)c1ccccc1)(Nc1ccc(S(=O)(=O)Nc2cc(C)on2)cc1)C(F)(F)F (stereo unspecified)	> 100 µM (inactive)	> 100 µM (inactive)	> 100 µM (inactive)	> 100 µM (inactive)	> 100 µM (inactive)	> 100 µM (inactive)	> 100 µM (inactive)	> 100 µM (inactive)	> 100 µM (inactive)	> 100 µM (inactive)	> 10 µM (inactive)	> 10 µM (inactive)	> 100 µM (inactive)	> 100 µM (inactive)	> 100 µM (inactive)	> 100 µM (inactive)	> 100 µM (inactive)	> 100 µM (inactive)	> 100 µM (inactive)
CCCCCC(=O)OCC(=O)[C@H]1[C@H](C)C[C@H]2[C@@H]3C[C@H](F)C4=C/C(=N/OC(=O)c5cccc6c(=O)c7ccccc7[nH]c56)C=C[C@]4(C)[C@H]3[C@@H](O)C[C@@]21C	25.2 µM (inactive)	28.6 µM (inactive)	39.4 µM (inactive)	23.1 µM (inactive)	47.8 µM (inactive)	46.5 µM (inactive)	16.5 µM (inactive)	14.3 µM (inactive)	10.8 µM (inactive)	< 0.01 µM (active)	29.6 µM (inactive)	20 µM (inactive)	37.3 µM (inactive)	11.2 µM (inactive)	32.8 µM (inactive)	53.8 µM (inactive)	73.1 µM (inactive)	31.7 µM (inactive)	24.8 µM (inactive)
O=CNc1ccc2c(c1)C(=O)c1ccccc1-2	44.1 µM (inactive)	> 100 µM (inactive)	57.8 µM (inactive)	> 100 µM (inactive)	> 100 µM (inactive)	81.3 µM (inactive)	> 100 µM (inactive)	60.3 µM (inactive)	50.9 µM (inactive)	61.4 µM (inactive)	> 100 µM (inactive)	> 100 µM (inactive)	> 100 µM (inactive)	> 100 µM (inactive)	> 100 µM (inactive)	47.3 µM (inactive)	72.8 µM (inactive)	24.1 µM (inactive)	> 100 µM (inactive)
CCOC(=O)c1c(Br)c(-c2ccc(Br)cc2)c(Br)n1C	12.2 µM (inactive)	18.8 µM (inactive)	31.1 µM (inactive)	> 10 µM (inactive)	17.9 µM (inactive)	5.08 µM (inactive)	14.5 µM (inactive)	9.38 µM (inactive)	28.8 µM (inactive)	17.9 µM (inactive)	22.7 µM (inactive)	20.7 µM (inactive)	28.3 µM (inactive)	5.38 µM (inactive)	19.4 µM (inactive)	19.7 µM (inactive)	7.31 µM (inactive)	34.3 µM (inactive)	32.8 µM (inactive)
COc1ncc(C#CC(=O)c2ccccc2OC)c(OC)n1	1.82 µM (inactive)	1.78 µM (inactive)	5.87 µM (inactive)	2.3 µM (inactive)	16.9 µM (inactive)	0.39 µM (active)	1.93 µM (inactive)	0.738 µM (active)	2.06 µM (inactive)	2.61 µM (inactive)	2.73 µM (inactive)	3.52 µM (inactive)	15 µM (inactive)	2.01 µM (inactive)	3.41 µM (inactive)	3.61 µM (inactive)	2.32 µM (inactive)	9.98 µM (inactive)	25.6 µM (inactive)
COC(=O)c1c(OC(C)=O)ccc2c1c1c(OC(C)=O)c3ccccc3c(OC(C)=O)c1n2Cc1cc(OC)cc(OC)c1	9.1 µM (inactive)	5.11 µM (inactive)	38.5 µM (inactive)	3.31 µM (inactive)	18.2 µM (inactive)	11 µM (inactive)	6.82 µM (inactive)	3.06 µM (inactive)	4.93 µM (inactive)	3.94 µM (inactive)	9.91 µM (inactive)	25.7 µM (inactive)	9.2 µM (inactive)	5.78 µM (inactive)	> 100 µM (inactive)	5.09 µM (inactive)	1.8 µM (inactive)	14.2 µM (inactive)	9.68 µM (inactive)
COc1cc(C2c3[nH]c4ccc(F)cc4c3C[C@H]3COC(=O)N23)cc(OC)c1O (stereo partly specified)	13.2 µM (inactive)	17 µM (inactive)	15.9 µM (inactive)	26.2 µM (inactive)	12.1 µM (inactive)	14.8 µM (inactive)	43.2 µM (inactive)	15 µM (inactive)	10.1 µM (inactive)	96.6 µM (inactive)	4.11 µM (inactive)	11.1 µM (inactive)	21.3 µM (inactive)	4.93 µM (inactive)	18.8 µM (inactive)	11.5 µM (inactive)	15.8 µM (inactive)	2.85 µM (inactive)	15.5 µM (inactive)
Oc1cc(-c2cccc3ccccc23)nc2ncccc12	0.0611 µM (active)	0.0159 µM (active)	0.0418 µM (active)	0.0178 µM (active)	0.0388 µM (active)	0.00525 µM (active)	0.938 µM (active)	0.0201 µM (active)	0.05 µM (active)	0.0243 µM (active)	0.035 µM (active)	0.00152 µM (active)	0.0274 µM (active)	0.0206 µM (active)	0.0472 µM (active)	0.0201 µM (active)	0.434 µM (active)	0.0524 µM (active)	0.0176 µM (active)
c1c2c(cc3c1OCO3)-c1cc3ccc4c(c3c[n+]1CC2)OCO4 [COPTISINE CHLORIDE]	2.04 µM (inactive)	1 µM (active)	1.3 µM (inactive)	0.555 µM (active)	0.927 µM (active)	0.486 µM (active)	> 5.85 µM (inactive)	0.311 µM (active)	1.16 µM (inactive)	0.711 µM (active)	0.815 µM (active)	1.95 µM (inactive)	1.22 µM (inactive)	0.348 µM (active)	> 12.5 µM (inactive)	2.36 µM (inactive)	5.57 µM (inactive)	1.38 µM (inactive)	3.3 µM (inactive)

— ChEMBL document CHEMBL1201862, “PubChem BioAssay data set” (2004)
